Reference: patent US10159738B2, “Organic-inorganic hybrid solid having a modified outer surface” (CENTRE NATIONAL DE LA RECHERCHE SCIENTIFIQUE-CNRS, priority 2012, dated 2018)

Columns and labels:
J774 cell line = experiment: Penetration in the J774 cell line (CLSM, ATP-BODIPY label); type: cell-based, murine; details: 50 μg/ml, 15 min to 24 h
Procedure: For this analysis the MIL-100s were labeled with a fluorophore: adenosine 5′-triphosphate BODIPY-FL (ATP-BODIPY, adenosine 5′-triphosphate, BODIPY® FL, Invitrogen). 1.25 mg of MIL-100 was incubated with 500 μL of an aqueous solution of ATP-BODIPY 10 nmol/ml, for 1 h, with stirring in the dark at room temperature. At the end of incubation, the nanoparticles were recovered by centrifugation at 5600×g for 10 min, and the supernatant was analyzed by spectrofluorimetry in order to quantify the level of absorption of the fluorophore. The nanoparticles were then incubated in 500 μl of water (unmodified sample) or of an aqueous solution of βCDP 1.25 mg/ml, for 1 h with stirring, at room temperature, in the dark. At the end of incubation, the nanoparticles were recovered by centrifugation at 5600×g for 10 min and resuspended in RMPI 10% FBS (fetal bovine serum) to a final concentration of 50 μg/ml. The cells of the J774 line had been cultured beforehand in 24-well plates (5×10^4 cells per well) on a sterile glass cover slip.
After 24 h of incubation in a humidified incubator at 37° C., the culture medium was replaced with 1 ml of the solutions of nanoparticles loaded with ATP-BODIPY (unmodified or surface-modified), or with free ATP-BODIPY. After various incubation times (15 min, 1 h, 4 h, 24 h), the culture medium was aspirated and the cells were fixed.

[1] = COOH groups; cited from earlier work

adenosine 5′-triphosphate, BODIPY® FL [ATP-BODIPY]
internalization in the cells (J774 cell line): no fluorescence was observed in the cells

O=C(O)c1cc(C(=O)O)cc(C(=O)O)c1 [trimesic acid, 1,3,5-benzenetricarboxylic acid]
pKa [1]: 3.4
